What was measured:
5-HT4 receptor = target: T1, 5-HT4 receptor (Cavia porcellus, UniProt O70528); experiment: 5-HT4 receptor antagonist activity: 5-HT-evoked contractions of guinea-pig distal colon longitudinal muscle-myenteric plexus (LMMP) preparations; conditions: mean ± SEM, n=7, antagonism of 5-HT dose response curve, 45 minutes incubation
T1 construct: Longitudinal muscle-myenteric plexus (LMMP) preparations, 2-3cm long, are obtained from the distal colon region; from tissue; host or cells: guinea-pig distal colon longitudinal muscle-myenteric plexus
Method: 5-HT4 RECEPTOR ANTAGONIST ACTIVITY
Male Dunkin Hartley guinea-pigs, weighing 200-300 g are used. Longitudinal muscle-myenteric plexus (LMMP) preparations, 2-3cm long, are obtained from the distal colon region. These are suspended under a 0.5 g load in isolated tissue baths containing Krebs Henseleit solution (NaCl 118 mM, KCl 4.7mM KH2PO4 1.2mM MgSO4 7H2O 1.2mM, Glucose 11.1mM, NaHCO3 25mM, CaCl2 6H2O 2.5mM) bubbled with 5% CO2 in O2, maintained at 37° C. and containing 1uM Granisetron and 0.1uM Methiothepin to block 5HT3 and 5HT1-like receptors respectively. 100uM Pargyline is also added to the tissues at the start of the experiment. Tissues are left for 15 minutes to equilibrate and then exposed to 5-HT at 0.1uM every 15 minutes until a uniform response is achieved. Following a half hour period for tissues to stabilise, non-cumulative dose response curves to 5-HT are constructed in all tissues. When base-lines have returned to normal, test compounds are added in the reservoirs of the tissue set-ups and washed in to the tissues. Tissues are incubated with the antagonists for 45 minutes after which a second non-cumulative dose response curve to 5-HT is constructed.
To test for selectivity of action, compounds are tested for their ability to antagonise cholinergically-mediated contractions of the guinea-pig colon, evoked by the nicotinic receptor agonist. […]

[1] = system: DMPP-evoked contractions of the guinea-pig colon; experiment: Selectivity test: cholinergically-mediated contractions of guinea-pig colon evoked by the nicotinic receptor agonist DMPP; conditions: selectivity of action
Method: To test for selectivity of action, compounds are tested for their ability to antagonise cholinergically-mediated contractions of the guinea-pig colon, evoked by the nicotinic receptor agonist. DMPP (1,1-dimethyl-4-phenyl-piperazinium iodide). For these experiments, tissues and equipment are set up as for the above, 5HT4 receptor experiments. After sensitization, non-cumulative dose response curves are constructed to DMPP. Test compounds are incubated with the tissues as above, and a second dose response curve to DMPP created. Results are given as mean pKB± SEM values for each antagonists.

T1 sequence (O70528 whole entry): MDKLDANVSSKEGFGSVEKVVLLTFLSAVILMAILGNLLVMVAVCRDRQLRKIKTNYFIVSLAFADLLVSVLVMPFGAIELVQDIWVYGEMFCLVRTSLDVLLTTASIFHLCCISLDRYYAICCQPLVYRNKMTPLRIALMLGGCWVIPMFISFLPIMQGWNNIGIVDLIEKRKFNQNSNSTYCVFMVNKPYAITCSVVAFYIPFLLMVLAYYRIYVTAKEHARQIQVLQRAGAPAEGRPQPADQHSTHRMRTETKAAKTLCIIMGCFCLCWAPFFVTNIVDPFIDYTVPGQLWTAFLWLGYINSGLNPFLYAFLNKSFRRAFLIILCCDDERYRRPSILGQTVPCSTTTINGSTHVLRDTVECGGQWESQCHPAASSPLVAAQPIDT

CCCCN1CCC(CNC(=O)c2c3n(c4ccccc24)C(O)CCO3)CC1 (racemic) [compound of formula (I), (±)-N-[(1-butyl-4-piperidinyl)methyl]-3,4-dihydro-4-hydroxy-2H-[1,3]oxazino[3,2-a]indole-10-carboxamide]
Kb (5-HT4 receptor): 3.39 nM
effect on DMPP-evoked contractions [1]: did not significantly affect DMPP-evoked contractions

Source: patent publication US20010031751A1, “Pharmaceuticals” (SmithKline Beecham p.l.c., priority 1997, published 2001)
